Measured values reported in ChEMBL document CHEMBL1201862, “PubChem BioAssay data set” (2004).
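Compound exposure: 48 hours, 5 concentrations, 96-well plates. GI50: concentration for 50% inhibition of growth.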 Active and inactive are the calls of the source. Rule as the data show it: active = GI50 up to about 1.1 µM and inactive = higher.

Key:
Assay in all cases: NCI anticancer screen, dose series, 48 h
SW-620 = test system: SW-620
NCI/ADR-RES = test system: NCI/ADR-RES
SN12C = test system: SN12C
HCC 2998 = test system: HCC 2998
SF-268 = test system: SF-268
SNB-19 = test system: SNB-19
RXF 393 = test system: RXF 393
CCRF-CEM = test system: CCRF-CEM
ACHN = test system: ACHN
SR = test system: SR
TK-10 = test system: TK-10
HL-60 = test system: HL-60
SK-MEL-2 = test system: SK-MEL-2
MDA-MB-435 = test system: MDA-MB-435
EKVX = test system: EKVX
NCI-H460 = test system: NCI-H460
SK-MEL-5 = test system: SK-MEL-5
UACC-257 = test system: UACC-257
RPMI-8226 = test system: RPMI-8226
SK-OV-3 = test system: SK-OV-3

Structure (SMILES)	GI50 (SW-620)	GI50 (NCI/ADR-RES)	GI50 (SN12C)	GI50 (HCC 2998)	GI50 (SF-268)	GI50 (SNB-19)	GI50 (RXF 393)	GI50 (CCRF-CEM)	GI50 (ACHN)	GI50 (SR)	GI50 (TK-10)	GI50 (HL-60)	GI50 (SK-MEL-2)	GI50 (MDA-MB-435)	GI50 (EKVX)	GI50 (NCI-H460)	GI50 (SK-MEL-5)	GI50 (UACC-257)	GI50 (RPMI-8226)	GI50 (SK-OV-3)
Cc1cc(=O)oc2cc(OC(=O)N(C)C)c(Cl)cc12	> 100 µM (inactive)	> 100 µM (inactive)	> 100 µM (inactive)	> 100 µM (inactive)	86.5 µM (inactive)	71.4 µM (inactive)	2 µM (inactive)	> 100 µM (inactive)	> 100 µM (inactive)	> 100 µM (inactive)	> 100 µM (inactive)	54 µM (inactive)	82.6 µM (inactive)	65 µM (inactive)	> 100 µM (inactive)	> 100 µM (inactive)	76 µM (inactive)	80.5 µM (inactive)	> 100 µM (inactive)	
COc1cc2ncnc(Nc3cccc(Br)c3)c2cc1OC	13.2 µM (inactive)	2.46 µM (inactive)	13.2 µM (inactive)	3.26 µM (inactive)	3.81 µM (inactive)	15.2 µM (inactive)	11.5 µM (inactive)	30.2 µM (inactive)	0.06 µM (active)	20.3 µM (inactive)	0.653 µM (active)	> 28.8 µM (inactive)	3.14 µM (inactive)	7.48 µM (inactive)	0.316 µM (active)	5.75 µM (inactive)	2.18 µM (inactive)	7.5 µM (inactive)	34.1 µM (inactive)	0.284 µM (active)
CC(=N\N)/C(C)=N/N=C(C)/C(C)=N/N=C(C)/C(C)=N/N=C(C)/C(C)=N/N	> 100 µM (inactive)	> 100 µM (inactive)	> 100 µM (inactive)	> 100 µM (inactive)	> 100 µM (inactive)	> 100 µM (inactive)	> 100 µM (inactive)	> 100 µM (inactive)		0.248 µM (active)	> 100 µM (inactive)	> 100 µM (inactive)	> 100 µM (inactive)	> 100 µM (inactive)	> 100 µM (inactive)	> 100 µM (inactive)	> 100 µM (inactive)	> 100 µM (inactive)	> 100 µM (inactive)	> 100 µM (inactive)
CC(CO)CCC(O)C(C)(O)C1CCC2(O)C3=CC(=O)C4CC(O)C(O)CC4(C)C3CCC12C (configuration not stated)	> 100 µM (inactive)	> 100 µM (inactive)	> 100 µM (inactive)	> 100 µM (inactive)		> 100 µM (inactive)	> 100 µM (inactive)	81.3 µM (inactive)	> 100 µM (inactive)	> 100 µM (inactive)		> 100 µM (inactive)	> 100 µM (inactive)	> 100 µM (inactive)	> 100 µM (inactive)	> 100 µM (inactive)	> 100 µM (inactive)	> 100 µM (inactive)	> 100 µM (inactive)	> 100 µM (inactive)
CN1C(=O)C(O)CC1c1ccccc1C(F)(F)F (configuration not stated)	> 100 µM (inactive)	> 100 µM (inactive)	> 100 µM (inactive)	> 100 µM (inactive)		> 100 µM (inactive)	> 100 µM (inactive)	> 100 µM (inactive)	> 100 µM (inactive)	> 10 µM (inactive)		> 100 µM (inactive)	> 100 µM (inactive)	> 100 µM (inactive)	> 100 µM (inactive)	> 100 µM (inactive)	> 100 µM (inactive)	> 100 µM (inactive)	> 100 µM (inactive)	> 100 µM (inactive)
CC(=O)n1nc(-c2ccc3ccccc3c2)nc1C	32.8 µM (inactive)	> 100 µM (inactive)	> 100 µM (inactive)	> 100 µM (inactive)	> 100 µM (inactive)		> 100 µM (inactive)	83.8 µM (inactive)	73.1 µM (inactive)	> 100 µM (inactive)	> 100 µM (inactive)	46 µM (inactive)	> 100 µM (inactive)	33.7 µM (inactive)	63 µM (inactive)	95.9 µM (inactive)	36.1 µM (inactive)	83.9 µM (inactive)		> 100 µM (inactive)
CC#CC(O)(C(=O)OC1CC2CCC(C1)N2C)C1CCCC1 (configuration not stated)	> 100 µM (inactive)	> 100 µM (inactive)	> 100 µM (inactive)	> 100 µM (inactive)	> 100 µM (inactive)	> 100 µM (inactive)	> 100 µM (inactive)	> 100 µM (inactive)	> 100 µM (inactive)	> 100 µM (inactive)	> 100 µM (inactive)	> 100 µM (inactive)	> 100 µM (inactive)	> 100 µM (inactive)	> 100 µM (inactive)	> 100 µM (inactive)	> 100 µM (inactive)	> 100 µM (inactive)	> 100 µM (inactive)	> 100 µM (inactive)
COc1c2c(cc3occ(-c4ccc(CC=C(C)C)cc4)c(=O)c13)OC(C)(C)C=C2	45.6 µM (inactive)	18.2 µM (inactive)	84.1 µM (inactive)	59.2 µM (inactive)	> 100 µM (inactive)	61.1 µM (inactive)	43.4 µM (inactive)	12.8 µM (inactive)	77.6 µM (inactive)	8.55 µM (inactive)	81.8 µM (inactive)	10.3 µM (inactive)	11.2 µM (inactive)	27 µM (inactive)	28.4 µM (inactive)		11.7 µM (inactive)	39.4 µM (inactive)	6.97 µM (inactive)	> 100 µM (inactive)
COC1=CC(=O)c2c(cc(COP(=O)(OCC3OC(n4cc(F)c(=O)[nH]c4=O)CC3O)N(C)CCCCCl)n2C)C1=O (configuration not stated)	0.141 µM (active)	0.678 µM (active)	< 0.0248 µM (active)	< 0.01 µM (active)	< 0.01 µM (active)	0.951 µM (active)	0.0478 µM (active)	< 0.01 µM (active)	< 0.01 µM (active)	< 0.01 µM (active)	1.81 µM (inactive)	0.195 µM (active)	17.7 µM (inactive)	1.04 µM (active)	3.86 µM (inactive)	< 0.01 µM (active)	0.0329 µM (active)	18.5 µM (inactive)	< 0.0237 µM (active)	
COc1cccc2cc(C(N)=O)c(=N)oc12	99.1 µM (inactive)	57.1 µM (inactive)	39.4 µM (inactive)	41.3 µM (inactive)	51.1 µM (inactive)	82 µM (inactive)	70.5 µM (inactive)	40.6 µM (inactive)	40.3 µM (inactive)	58.2 µM (inactive)		58.7 µM (inactive)	22.9 µM (inactive)	42.3 µM (inactive)	29.2 µM (inactive)	37.2 µM (inactive)	49.2 µM (inactive)	> 100 µM (inactive)	90.2 µM (inactive)	49.9 µM (inactive)
CCOC(=O)c1nc2ccc(C(F)(F)F)cc2nc1Nc1ccc(Cl)c(Cl)c1	> 100 µM (inactive)	> 100 µM (inactive)	> 100 µM (inactive)	39.5 µM (inactive)	> 100 µM (inactive)	42.5 µM (inactive)	> 100 µM (inactive)	86.1 µM (inactive)	97.1 µM (inactive)	75.3 µM (inactive)	> 100 µM (inactive)	95.7 µM (inactive)		> 100 µM (inactive)	> 100 µM (inactive)	> 100 µM (inactive)	> 100 µM (inactive)	> 100 µM (inactive)	> 100 µM (inactive)	> 100 µM (inactive)
COc1cc(C2c3cc4c(c(O)c3C(=O)C3CCC(=O)N32)OCO4)cc(OC)c1OC (configuration not stated)	45.9 µM (inactive)	89.1 µM (inactive)	> 100 µM (inactive)	32 µM (inactive)	57 µM (inactive)	> 100 µM (inactive)		31.3 µM (inactive)	75 µM (inactive)	44.8 µM (inactive)	67.5 µM (inactive)	45 µM (inactive)	79.8 µM (inactive)	18.2 µM (inactive)	> 100 µM (inactive)	52.6 µM (inactive)	23.9 µM (inactive)	> 100 µM (inactive)	92.7 µM (inactive)	46 µM (inactive)
N#CCCC1C(C#N)C2CC1C1C3C=CC(C3)C21 (configuration not stated)	> 100 µM (inactive)	> 100 µM (inactive)		> 100 µM (inactive)	> 100 µM (inactive)	> 100 µM (inactive)	63.4 µM (inactive)	> 100 µM (inactive)	> 100 µM (inactive)	> 100 µM (inactive)	> 100 µM (inactive)	> 100 µM (inactive)	> 100 µM (inactive)	> 100 µM (inactive)	> 100 µM (inactive)		> 100 µM (inactive)	> 100 µM (inactive)	> 100 µM (inactive)	> 100 µM (inactive)
Clc1cccc(/N=C/C=C/Nc2cccc(Cl)c2)c1	22.9 µM (inactive)	16.9 µM (inactive)	14 µM (inactive)	11.9 µM (inactive)	> 10 µM (inactive)	> 10 µM (inactive)	20.8 µM (inactive)	> 10 µM (inactive)	> 10 µM (inactive)	24.2 µM (inactive)	37.8 µM (inactive)	18.9 µM (inactive)		15.6 µM (inactive)	> 10 µM (inactive)	17.7 µM (inactive)	16.8 µM (inactive)	16.6 µM (inactive)	27.2 µM (inactive)	
N=C(N)N1CCC(N2CCOCC2)CC1	> 100 µM (inactive)	> 100 µM (inactive)	> 100 µM (inactive)	> 100 µM (inactive)	> 100 µM (inactive)	> 100 µM (inactive)	> 100 µM (inactive)	> 100 µM (inactive)	> 100 µM (inactive)	> 100 µM (inactive)	> 100 µM (inactive)	> 100 µM (inactive)		> 100 µM (inactive)	> 100 µM (inactive)	> 100 µM (inactive)	> 100 µM (inactive)	> 100 µM (inactive)	> 100 µM (inactive)	> 100 µM (inactive)
